According to patent US8846914B2, “Compositions to effect neuronal growth” (Neuralstem, Inc., priority 2003, dated 2014):

Columns and labels:
[1] = test system: human hippocampal stem cells; settings: positive control; as described in U.S. Ser. No. 10/728,652; cited from earlier work
[2] = test system: human hippocampal stem cells; experiment: Neurogenesis, TuJ1 immunostaining / Hoechst (primary screen); type: cell-based
Excerpt: FIG. 2 is a bar graph illustrating an example of a neurogenesis profile of compounds selected from primary screening. After seven days of compound treatment, the cells were stained with the neuron-specific anti-tubulin IIIb antibody. TuJ1, for neurons and Hoechst for all cell nuclei. Shown are the relative ratio of neuron: total cells for each compound over the vehicle control in percentage. Typical ratio for vehicle control is 40-50% neurons. The ratio can change by either increased differentiation of stem cells to neurons, decreased proliferation of astrocytes, or increased proliferation of neuronal progenitors.
FIG. 3 is a bar graph illustrating an example of a neurogenesis profile of compounds selected from primary screening. After seven days of compound treatment, the cells were stained with TuJ1 for neurons. The number of TuJ1+ neurons per area was quantified and expressed as a relative value to the vehicle treated control.
The final neuron number is detected by immunostaining of the culture with antibodies against neurons and is quantified by counting of the immunopositive neurons and/or by measuring the staining intensity. Therefore, after seven days of compound treatment, the cells are stained with the neuron-specific anti-tubulin IIIb antibody, TuJ1, for neurons and Hoechst for all cell nuclei. The number of TuJ1+ neurons per area is quantified and expressed as a value relative to the vehicle-treated control of Hoechst-stained cells. In this regard, the medium is removed from the wells by decanting and blotting the plates on paper towels. The cells are then fixed in 100 μl of 4% paraformaldehyde per well for thirty minutes at room temperature. The cells are washed three times with 400 μl per well of phosphate-buffered saline (PBS) at pH 7.5 for approximately ten minutes per wash. The plates are then stored at 4° C. in PBS or used immediately for staining.
The cells are subsequently stained with antibodies against neuron-specific antigens according to standard procedures. The staining process includes decanting the PBS and blocking the cells with 100 μl of 5% Normal Goat Serum (NGS) in PBS for one hour at room temperature. The NGS/PBS is decanted and the plates are blotted on a paper towel. The cells are then permeabilized with 0.1% Triton X-100 in PBS for 30 minutes at room temperature.
Typical neuron-specific antigens include Type III-beta tubulin and MAP-2c. The total cell number in each well was quantified by staining the cultures with a nuclear dye such as DAPI or Hoechst according to standard procedures. Therefore, once the cells are permeabilized, 20 μl of TuJ1, monoclonal antibody against neuronal class 111 β-tubulin (CoVance (BabCo) MMS-435P) and 32 μl of anti-GFAP polyclonal (DAKO Z0334) are added to and mixed of PBS with 5% NGS. Final dilutions of TuJ1 and anti-GFAP are 1:400 and 1:250, respectively. 90 μl of the antibody solution is added to each well except two eleventh column. 90 μl of PBS/5% NGS is added to the eleventh column and no cells are added to the twelfth column. The plate(s) are sealed with parafilm and incubated at 4° C. overnight.
After incubating the cells overnight, the antibody solution is decanted and 200 μl of PBS/0.1% Triton X-100 is added to the wells. The plate(s) are placed on a shaker and incubated at room temperature with gentle shaking for ten minutes. The cells are again washed with the PBS/Triton X-100 solution another two times.
Following staining with TuJ1 and anti-GFAP, 20 μl of Alexa Fluor 488 labeled goat anti-moose IgG (H+L) (Molecular Probes A-11001) and 100 μl of LRSC-IgG, goat anti-rabbit (Jackson Immune 111-295-144) is added and mixed with 10 ml of PBS/5% NGS. 100 μl of the resulting antibody solution is added to each well. The plate(s) are covered with foil and incubated with gentle shaking for up to one hour at room temperature. The cells are again washed as described above with PBS and an Triton X-100. […]

Row | Compound | Increase of the number of neurons and glia [1] | Activity in primary in vitro neurogenesis screen [2]
1 | LIF: leukemia inhibitory factor (LIF), a cytokine growth factor, positive control | two to three-fold | 
2 | COc1ccc(C2CNC(=O)C2)cc1OC1CCCC1 (centres unmarked) [Rolipram, reference compound] |  | effective
